Results as given in patent US20050080054A1, “Treating androgen decline in aging male (ADAM)-associated conditions with SARMS” (priority 2002, published 2005).

What was measured:
Type in all cases: in vivo, rat
[1] = test system: female rats after ovariectomy; experiment: Bone mineral content (DEXA) in female rats after ovariectomy
Description: One hundred ten female rats were assigned to one of eleven treatment groups. Groups 1-8 were ovariectomized on day one of the study. Groups 9-11 were intact animals. Groups 1-6 received Compound VI by daily subcutaneous injection at doses of 0.1, 0.3, 0.5, 0.75, 1.0, and 3 mg/day, respectively. Groups 7 and 11 received dihydrotestosterone (DHT) at a dose of 1 mg/day. Groups 8 and 9 were ovariectomized and intact control groups, respectively. Group 10 received Compound VI at a dose of 1.0 mg/day. All animals were treated for 120 days. Bone mineral content (BMC) was determined using dual energy x-ray absorptiometry (DEXA) on days 1, 30, 60, 90, and 120.

[2] = test system: androgen-responsive tissues (prostate, seminal vesicles, levator ani muscle); experiment: Dose response of androgenic and anabolic activities (Emax, ED50) compared to TP; conditions: for Emax (% of Intact Control): doses 0.1-1.0 mg/day; for Relative Afficacy / Relative Potency: relative to TP
Description: FIG. 6: Dose response Curves. Rats were left untreated, or treated with 0.1, 0.3, 0.5, 0.75 and 1.0 mg/day Compound VI, Compound VII or testosterone propionate (TP), and the weight of androgen-responsive tissues (prostate—FIG. 6A, semimal vesicles—FIG. 6B and levator ani muscle—FIG. 6C) was determined. The results are plotted as percentage of the intact control.
(§1) Compound VI and Compound VII were synthesized and characterized in the laboratory of Dr. Duane Miller at the University of Tennessee, Memphis, Tenn. Male Sprague-Dawley rats were purchased from Harlan Biosciences (Indianapolis, Ind.). The animals were maintained on a 12-h cycle of light and dark with food and water available ad libitum. All animal studies were reviewed and approved by the Animal Care and Use Committee of The Ohio State University, and conformed to the Principles of Laboratory Animal Care (NIH publication #85-23, revised 1985). Immature male Sprague-Dawley rats weighing 187 to 214 g were randomly distributed into 9 groups of 5 animals. One day before the initiation of drug treatment, groups 4 through 6 and groups 7 through 9 received unilateral or bilateral orchidectomy, respectively, via a midline scrotal incision. […] All drugs given to animals were freshly prepared as solutions in polyethylene glycol 300 (PEG 300). Groups 4 and 7 received treatment with vehicle alone (i.e., PEG 300). Animals in groups 3, 6, and 9 received testosterone propionate (TP, 0.5 mg/day) via implantation of subdermal osmotic pumps (Model 2002, Durect Corporation, Palo Alto, Calif.). Animals in groups 2, 5, and 8 received Compound VI or Compound VII (0.5 mg/day) via implantation of subdermal osmotic pumps. After 14 days of drug treatment, rats were weighed, anesthetized, and sacrificed. Blood samples were collected by venipuncture of the abdominal aorta. Plasma samples were analyzed for testosterone, FSH, LH and osteocalcin. Testosterone concentrations were measured by AniLytics Inc. (Gaithersburg, Md.). FSH and LH levels were measured by the National Hormone and Peptide Program (Dr. A F Parlow, UCLA, CA). Plasma osteocalcin levels were determined using a commercially available rat osteocalcin EIA kit from Biomedical Technologies Inc. (Stoughton, Mass.). The ventral prostates, seminal vesicles, and levator ani muscle were removed and weighed. Osmotic pumps were also removed from animals to check for correct pump operation. The weights of all organs were normalized to body weight, and analyzed for any statistically significant differences between groups using single-factor ANOVA with the alpha value set a priori at p<0.05. The weights of prostates and seminal vesicles were used as indices for evaluation of androgenic activity, and the levator ani muscle weight was used to evaluate the anabolic activity. Statistical analyses of parameters from complete blood count or serum chemical profiling, wherever applicable, were performed by single-factor ANOVA with the alpha value set a priori at p<0.05.

[3] = Plasma osteocalcin levels in male rats of varying hormonal status; conditions: 0.5 mg/day; for Plasma osteocalcin levels: 14 days, n = 5
Description: as §1

[4] = Plasma LH levels in male rats of varying hormonal status; conditions: 0.5 mg/day; for Plasma LH levels: 14 days, n = 5
Description: as §1

[5] = Plasma testosterone levels in male rats of varying hormonal status; conditions: 0.5 mg/day; for Plasma testosterone levels: osmotic pump, 14 days, n = 5
Description: as §1

[6] = test system: androgen-responsive tissues (prostate, seminal vesicles, levator ani muscle); experiment: Androgenic and anabolic activity: weight of androgen-responsive tissues in intact, hemi-orchidectomized and castrated rats; conditions: 0.5 mg/day, 14 days, n = 5
Description: FIG. 3: Androgenic and Anabolic activity of Compound VI and Compound VII in rats. Male rats with normal testicular function (no surgical manipulation) were left untreated (Intact), treated with compound VI (0.5 mg/day), compound VII (0.5 mg/day) or testosterone proprionate (TP, 0.5 mg/day), and the weight of androgen-responsive tissues (prostate—FIG. 3A, semimal vesicles—FIG. 3B, and levator ani muscle—FIG. 3C) was determined.
(§2) FIG. 4: Androgenic and Anabolic activity of Compound VI and Compound VII in rats. Male rats received unilateral orchidectomy (Hemi-orchidectomized) and were left untreated (Intact), treated with vehicle alone (PEG 300), Compound VI (0.5 mg/day), Compound VII (0.5 mg/day), or testosterone proprionate (TP, 0.5 mg/day), and the weight of androgen-responsive tissues (prostate—FIG. 4A, semimal vesicles—FIG. 4B, and levator ani muscle—FIG. 4C) was determined.
as §2, with “5:” for “4:”, “bilateral” for “unilateral”, “(Castrated)” for “(Hemi-orchidectomized)”, “5A,” for “4A,”, “5B,” for “4B,”, “5C)” for “4C)”
as §1

[7] = test system: myosin heavy chain (MHC) IIb mRNA; experiment: Myosin heavy chain (MHC) IIb mRNA expression in masseter muscle by RT-PCR; conditions: masseter muscle of intact female rats; untreated control = 100%
Description: MHC is the predominant protein in skeletal muscle encoded by a multigene family expressed in a tissue-specific and developmentally regulated manner [Adams et al 1999]. In steady state, mRNA expression usually parallels the pattern of MHC protein expression. Because transcription of MHC mRNA occurs in advance of MHC protein translation, and the increased sensitivity of RT-PCR compared to western blotting, rapid changes in mRNA expression can be detected and used to analyze the subtle dynamic effects of muscle anabolism [Wright et al 1997].
The masseter muscle dissected from untreated intact female rats was set as the control level (representing 100%) of MHC IIb expression (FIG. 7A). Intact female rats treated with androgens were evaluated against the untreated controls for the effect of treatment on MHC IIb from masseter.

[8] = Plasma FSH levels in male rats of varying hormonal status; conditions: 0.5 mg/day; for Plasma FSH levels: 14 days, n = 5
Description: as §1

[9] = TP statement for castrated male rats

SMILES: C[C@]12CCC(=O)C[C@@H]1CC[C@@H]1[C@@H]2CC[C@]2(C)[C@@H](O)CC[C@@H]12 [DHT, dihydrotestosterone, reference compound]
- potency comparison Compound VI versus DHT ([1]; ovariectomized female rat bone model): less potent than Compound VI
- increase in BMC ([1]; ovariectomized female rats, 1.0 mg/day, treated for 120 days (group 5; DHT 1 mg/day)): 15%

SMILES: C[C@](O)(COc1ccc(F)cc1)C(=O)Nc1ccc([N+](=O)[O-])c(C(F)(F)F)c1 [GTx-014]
- ED50 ([2]; Anabolic, Levator Ani Muscle): 0.44 ± 0.01 mg/day
- Emax (% of Intact Control) ([2]; Anabolic, Levator Ani Muscle): 74.9 ± 0.4 % of Intact Control
- Relative Afficacy ([2]; Anabolic, Levator Ani Muscle): 0.72
- Relative Potency ([2]; Anabolic, Levator Ani Muscle): 0.34
- ED50 ([2]; Androgenic, Prostate): 0.42 ± 0.04 mg/day
- Emax (% of Intact Control) ([2]; Androgenic, Prostate): 14.5 ± 0.7 % of Intact Control
- Relative Afficacy ([2]; Androgenic, Prostate): 0.12
- Relative Potency ([2]; Androgenic, Prostate): 0.31
- ED50 ([2]; Androgenic, Seminal Vesicle): 0.38 ± 0.26 mg/day
- Emax (% of Intact Control) ([2]; Androgenic, Seminal Vesicle): 12.7 ± 3.1 % of Intact Control
- Relative Afficacy ([2]; Androgenic, Seminal Vesicle): 0.18
- Relative Potency ([2]; Androgenic, Seminal Vesicle): 0.32

SMILES: CC(=O)Nc1ccc(OC[C@](C)(O)C(=O)Nc2ccc([N+](=O)[O-])c(C(F)(F)F)c2)cc1 [GTx-017]
- ED50 ([2]; Anabolic, Levator Ani Muscle): 0.14 ± 0.01 mg/day
- Emax (% of Intact Control) ([2]; Anabolic, Levator Ani Muscle): 101.0 ± 1.0 % of Intact Control
- Relative Afficacy ([2]; Anabolic, Levator Ani Muscle): 0.97
- Relative Potency ([2]; Anabolic, Levator Ani Muscle): 1.07
- ED50 ([2]; Androgenic, Prostate): 0.43 ± 0.01 mg/day
- Emax (% of Intact Control) ([2]; Androgenic, Prostate): 35.2 ± 0.4 % of Intact Control
- Relative Afficacy ([2]; Androgenic, Prostate): 0.29
- Relative Potency ([2]; Androgenic, Prostate): 0.30
- ED50 ([2]; Androgenic, Seminal Vesicle): 0.55 ± 0.02 mg/day
- Emax (% of Intact Control) ([2]; Androgenic, Seminal Vesicle): 28.5 ± 0.8 % of Intact Control
- Relative Afficacy ([2]; Androgenic, Seminal Vesicle): 0.40
- Relative Potency ([2]; Androgenic, Seminal Vesicle): 0.22

SMILES: CCC(=O)O[C@H]1CC[C@H]2[C@@H]3CCC4=CC(=O)CC[C@]4(C)[C@H]3CC[C@]12C [TP, testosterone propionate, reference compound]
- effect on plasma osteocalcin levels ([3]; Compound VI statement for hemi-orchidectomized and castrated animals): no effect
- Plasma osteocalcin levels ([3]; castrated male rats): 65.976 ± 11.213 ng/mL
- Plasma osteocalcin levels ([3]; hemi-orchidectomized male rats): 77.236 ± 24.418 ng/mL
- Plasma osteocalcin levels ([3]; intact male rats): 74.952 ± 15.399 ng/mL
- effect on plasma LH levels [4, 9]: significant decrease
- Plasma LH levels ([4]; castrated male rats): 6.702 ± 1.513 ng/mL
- Plasma LH levels ([4]; hemi-orchidectomized male rats): 0.124 ± 0.092 ng/mL
- Plasma LH levels ([4]; intact male rats): 0.168 ± 0.173 ng/mL
- ED50 ([2]; Anabolic, Levator Ani Muscle): 0.15 ± 0.03 mg/day
- Emax (% of Intact Control) ([2]; Anabolic, Levator Ani Muscle): 104.2 ± 10.1 % of Intact Control
- Relative Afficacy ([2]; Anabolic, Levator Ani Muscle): 1.00
- Relative Potency ([2]; Anabolic, Levator Ani Muscle): 1.00
- ED50 ([2]; Androgenic, Prostate): 0.13 ± 0.03 mg/day
- Emax (% of Intact Control) ([2]; Androgenic, Prostate): 120.6 ± 13.4 % of Intact Control
- Relative Afficacy ([2]; Androgenic, Prostate): 1.00
- Relative Potency ([2]; Androgenic, Prostate): 1.00
- ED50 ([2]; Androgenic, Seminal Vesicle): 0.12 ± 0.02 mg/day
- Emax (% of Intact Control) ([2]; Androgenic, Seminal Vesicle): 70.0 ± 18.8 % of Intact Control
- Relative Afficacy ([2]; Androgenic, Seminal Vesicle): 1.00
- Relative Potency ([2]; Androgenic, Seminal Vesicle): 1.00
- plasma testosterone levels versus controls ([5]; castrated male rats): higher plasma testosterone levels
- Plasma testosterone levels ([5]; castrated male rats): 0.258 ± 0.103 ng/mL
- Plasma testosterone levels ([5]; hemi-orchidectomized male rats): 2.366 ± 1.232 ng/mL
- Plasma testosterone levels ([5]; intact male rats): 1.482 ± 0.416 ng/mL
- Levator Ani weight ([6]; castrated rats): 87.27 ± 10.25 % of intact control
- Prostate weight ([6]; castrated rats): 76.78 ± 10.43 % of intact control
- Seminal Vesicle weight ([6]; castrated rats): 63.48 ± 17.05 % of intact control
- Levator Ani weight ([6]; hemi-orchidectomized rats): 98.63 ± 10.47 % of intact control
- Prostate weight ([6]; hemi-orchidectomized rats): 98.57 ± 7.98 % of intact control
- Seminal Vesicle weight ([6]; hemi-orchidectomized rats): 114.19 ± 23.81 % of intact control
- Levator Ani weight ([6]; intact rats): 95.61 ± 9.34 % of intact control
- Prostate weight ([6]; intact rats): 97.45 ± 10.82 % of intact control
- Seminal Vesicle weight ([6]; intact rats): 103.95 ± 13.23 % of intact control
- MHC type IIb transcription, of untreated control [7]: 133%
- effect on plasma FSH levels [8, 9]: significant decrease
- Plasma FSH levels ([8]; castrated male rats): 58.0 ± 6.9 ng/mL
- Plasma FSH levels ([8]; hemi-orchidectomized male rats): 17.2 ± 3.3 ng/mL
- Plasma FSH levels ([8]; intact male rats): 11.4 ± 1.7 ng/mL
